Data from PubChem BioAssay AID248 (DTP/NCI, 2004).
“And” between values parts separate entries of the source, which are not always exact repeats. Equal entries are not always repeated. Inconclusive results and toxic doses are left out. Rule as the data show it: active = T/C of 150% or more; inactive = T/C below 125%.

Test system: L1210 leukemia ip in BDF1 mice, survival T/C
Assay: NCI In Vivo Anticancer Drug Screen. Data for tumor model L1210 Leukemia (intraperitoneal) in B6D2F1 (BDF1) mice
Conditions: endpoint: mean survival time, higher = longer survival
Summary of the method: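 Value reflects the ratio of survival in compound-treated mice to survival in vehicle-treated controls, with both groups carrying the same transplanted tumor.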

[1] = dose: 100.0 mg/kg/injection, schedule: Q04DX003 (ip), vehicle: Klucel (hydroxypropylcellulose) (HPC)
[2] = dose: 200.0 mg/kg/injection, schedule: Q04DX003 (ip), vehicle: Klucel (hydroxypropylcellulose) (HPC)
[3] = dose: 400.0 mg/kg/injection, schedule: Q04DX003 (ip), vehicle: Klucel (hydroxypropylcellulose) (HPC)
[4] = dose: 100.0 mg/kg/injection, schedule: Q01DX009 (ip), vehicle: Klucel (hydroxypropylcellulose) (HPC)
[5] = dose: 200.0 mg/kg/injection, schedule: Q01DX009 (ip), vehicle: Klucel (hydroxypropylcellulose) (HPC)
[6] = dose: 400.0 mg/kg/injection, schedule: Q01DX009 (ip), vehicle: Klucel (hydroxypropylcellulose) (HPC)
[7] = dose: 100.0 mg/kg/injection, schedule: Q01DX009 (ip), vehicle: saline with Tween-80
[8] = dose: 200.0 mg/kg/injection, schedule: Q01DX009 (ip), vehicle: saline with Tween-80
[9] = dose: 400.0 mg/kg/injection, schedule: Q01DX009 (ip), vehicle: saline with Tween-80
[10] = dose: 5.0 mg/kg/injection, schedule: Q01DX001 (ip), vehicle: saline
[11] = dose: 10.0 mg/kg/injection, schedule: Q01DX001 (ip), vehicle: saline

Measured: T/C

CCC(NC(=O)c1ccccc1)C(=O)O (stereo not given)
inactive: [1] 95 % of control | [2] 101 % of control | [3] 103 % of control

CN(Cc1ccccc1)C(=O)Nc1ccccc1
inactive: dose: 100.0 mg/kg/injection, schedule: Q04DX002 (ip), vehicle: Klucel (hydroxypropylcellulose) (HPC) 98 % of control | dose: 200.0 mg/kg/injection, schedule: Q04DX002 (ip), vehicle: Klucel (hydroxypropylcellulose) (HPC) 103 % of control | dose: 400.0 mg/kg/injection, schedule: Q04DX002 (ip), vehicle: Klucel (hydroxypropylcellulose) (HPC) 95 % of control

O=C(C=C(C(F)(F)F)C(F)(F)F)c1ccco1
inactive: dose: 12.5 mg/kg/injection, schedule: Q01DX009 (ip), vehicle: saline with Tween-80 100 % of control | dose: 25.0 mg/kg/injection, schedule: Q01DX009 (ip), vehicle: saline with Tween-80 104 % of control

CC(=O)c1ccc(OC(=O)Nc2ccc(C)cc2)cc1
inactive: [4] 109 % of control | [5] 105 % of control | [6] 88 % of control

COC(=O)[C@H]1[C@H]2C[C@@H]3c4[nH]c5cc(OC)ccc5c4CCN3C[C@H]2C[C@@H](OC(=O)c2cccc(N(C)C)c2)[C@@H]1OC
inactive: dose: 0.78 mg/kg/injection, schedule: Q01DX009 (ip), vehicle: Klucel (hydroxypropylcellulose) (HPC) 102 % of control | dose: 0.78 mg/kg/injection, schedule: Q04DX003 (ip), vehicle: Klucel (hydroxypropylcellulose) (HPC) 94 % of control | dose: 1.56 mg/kg/injection, schedule: Q01DX009 (ip), vehicle: Klucel (hydroxypropylcellulose) (HPC) 102 % of control | dose: 1.56 mg/kg/injection, schedule: Q04DX003 (ip), vehicle: Klucel (hydroxypropylcellulose) (HPC) 107 % of control | dose: 3.12 mg/kg/injection, schedule: Q01DX009 (ip), vehicle: Klucel (hydroxypropylcellulose) (HPC) 96 % of control | dose: 3.12 mg/kg/injection, schedule: Q04DX003 (ip), vehicle: Klucel (hydroxypropylcellulose) (HPC) 104 % of control | dose: 6.25 mg/kg/injection, schedule: Q01DX009 (ip), vehicle: Klucel (hydroxypropylcellulose) (HPC) 93 % of control | dose: 6.25 mg/kg/injection, schedule: Q04DX003 (ip), vehicle: Klucel (hydroxypropylcellulose) (HPC) 104 % of control | dose: 12.5 mg/kg/injection, schedule: Q04DX003 (ip), vehicle: Klucel (hydroxypropylcellulose) (HPC) 100 % of control

Cc1ccc(C(N)=O)cn1
inactive: [7] 104 % of control | [8] 104 % of control | dose: 200.0 mg/kg/injection, schedule: Q04DX003 (ip), vehicle: saline with Tween-80 107 % of control | [9] 101 % of control | dose: 400.0 mg/kg/injection, schedule: Q04DX003 (ip), vehicle: saline with Tween-80 97 % of control

Cc1ccc(S(=O)(=O)N(CCCc2c(Cc3ccccc3)nc(N)[nH]c2=O)c2ccccc2)cc1
inactive: [4] 88 % of control | [1] 97 % of control and 105 % of control | [5] 93 % of control | [2] 113 % of control and 88 % of control | [6] 100 % of control | [3] 93 % of control

S=C(NCc1ccccc1)[S][Sb]([S]C(=S)NCc1ccccc1)[c]1ccccc1
inactive: [10] 88 % of control | [11] 109 % of control

CCOC(=O)CC/C(C)=N\N(C)C
inactive: dose: 100.0 mg/kg/injection, schedule: Q04DX003 (ip), vehicle: saline 93 % of control | dose: 200.0 mg/kg/injection, schedule: Q04DX003 (ip), vehicle: saline 97 % of control | dose: 400.0 mg/kg/injection, schedule: Q04DX003 (ip), vehicle: saline 93 % of control

CCc1nnnn1-c1ccc(Br)cc1
inactive: dose: 100.0 mg/kg/injection, schedule: Q01DX001 (ip), vehicle: Klucel (hydroxypropylcellulose) (HPC) 93 % of control | dose: 200.0 mg/kg/injection, schedule: Q01DX001 (ip), vehicle: Klucel (hydroxypropylcellulose) (HPC) 102 % of control | dose: 400.0 mg/kg/injection, schedule: Q01DX001 (ip), vehicle: Klucel (hydroxypropylcellulose) (HPC) 116 % of control

O=c1[nH]c2cnn(-c3ccccc3)c2c(=O)n1OS(=O)(=O)c1ccccc1
inactive: [10] 103 % of control | [11] 100 % of control | dose: 20.0 mg/kg/injection, schedule: Q01DX001 (ip), vehicle: saline 100 % of control | dose: 40.0 mg/kg/injection, schedule: Q01DX001 (ip), vehicle: saline 97 % of control | dose: 50.0 mg/kg/injection, schedule: Q01DX001 (ip), vehicle: saline 109 % of control | dose: 80.0 mg/kg/injection, schedule: Q01DX001 (ip), vehicle: saline 97 % of control | dose: 100.0 mg/kg/injection, schedule: Q01DX001 (ip), vehicle: saline 100 % of control | dose: 200.0 mg/kg/injection, schedule: Q01DX001 (ip), vehicle: saline 97 % of control | dose: 400.0 mg/kg/injection, schedule: Q01DX001 (ip), vehicle: saline 103 % of control

CSc1ccc(NC(=O)Nc2cc(C)cc(C)n2)cc1
inactive: [4] 94 % of control | [1] 98 % of control | [5] 94 % of control | [2] 103 % of control | [6] 87 % of control | [3] 98 % of control

CCCCNC(c1ccccc1)=[N+]1C(C)CCCC1C (stereo not given)
inactive: dose: 3.0 mg/kg/injection, schedule: Q04DX002 (ip), vehicle: saline 108 % of control | dose: 6.0 mg/kg/injection, schedule: Q04DX002 (ip), vehicle: saline 94 % of control | dose: 12.0 mg/kg/injection, schedule: Q04DX002 (ip), vehicle: saline 87 % of control | dose: 12.5 mg/kg/injection, schedule: Q04DX002 (ip), vehicle: saline 107 % of control

O=C(Nc1ccc(C(=O)c2ccccc2)cc1)Nc1ccc(C(=O)c2ccccc2)cc1
inactive: dose: 20.0 mg/kg/injection, schedule: Q01DX009 (ip), vehicle: saline with Tween-80 95 % of control | dose: 40.0 mg/kg/injection, schedule: Q01DX009 (ip), vehicle: saline with Tween-80 87 % of control | dose: 80.0 mg/kg/injection, schedule: Q01DX009 (ip), vehicle: saline with Tween-80 90 % of control | dose: 160.0 mg/kg/injection, schedule: Q01DX009 (ip), vehicle: saline with Tween-80 91 % of control | dose: 320.0 mg/kg/injection, schedule: Q01DX009 (ip), vehicle: saline with Tween-80 93 % of control

NC(N)=NN=C(CO)CO
active: dose: 30.0 mg/kg/injection, schedule: Q01DX Z (ip), vehicle: methylcellulose (MC) 172 % of control
inactive: dose: 1.0 mg/kg/injection, schedule: Q01DX Z (ip), vehicle: methylcellulose (MC) 103 % of control | dose: 2.0 mg/kg/injection, schedule: Q01DX Z (ip), vehicle: methylcellulose (MC) 111 % of control | dose: 4.0 mg/kg/injection, schedule: Q01DX Z (ip), vehicle: methylcellulose (MC) 109 % of control | dose: 8.0 mg/kg/injection, schedule: Q01DX Z (ip), vehicle: methylcellulose (MC) 117 % of control | dose: 15.0 mg/kg/injection, schedule: Q01DX Z (oral), vehicle: methylcellulose (MC) 89 % of control | dose: 30.0 mg/kg/injection, schedule: Q01DX Z (ip), vehicle: saline 110 % of control | dose: 30.0 mg/kg/injection, schedule: Q01DX Z (oral), vehicle: methylcellulose (MC) 102 % of control | dose: 60.0 mg/kg/injection, schedule: Q01DX Z (ip), vehicle: saline 108 % of control | dose: 60.0 mg/kg/injection, schedule: Q01DX Z (oral), vehicle: methylcellulose (MC) 93 % of control | dose: 120.0 mg/kg/injection, schedule: Q01DX Z (ip), vehicle: saline 103 % of control | dose: 120.0 mg/kg/injection, schedule: Q01DX Z (oral), vehicle: methylcellulose (MC) 100 % of control | dose: 120.0 mg/kg/injection, schedule: Q01DX Z (oral), vehicle: saline 100 % of control | dose: 240.0 mg/kg/injection, schedule: Q01DX Z (oral), vehicle: saline 100 % of control | dose: 480.0 mg/kg/injection, schedule: Q01DX Z (oral), vehicle: saline 101 % of control | dose: 960.0 mg/kg/injection, schedule: Q01DX Z (oral), vehicle: saline 101 % of control

CCCCNC(C)(C)C(SSS(=O)(=O)O)c1ccc(Cl)cc1 (stereo not given)
inactive: [7] 96 % of control | [8] 103 % of control | [9] 92 % of control

[O-][N+]1(c2ccc(Cl)cc2)CC[N+]([O-])(c2ccc(Cl)cc2)CC1 (stereo not given)
inactive: [1] 96 % of control | [2] 94 % of control | [3] 100 % of control
